Earlier results on one compound are cited in patent US20040171518A1, “Compounds for protein stabilization and methods for their use” (Medtronic MiniMed, Inc., priority 2003, published 2004).

Like-named read-outs stand apart in the source and are kept apart here.

`O=C(O)CCC(=O)NCCCCC1NC(=O)C(CCCCNC(=O)CCC(=O)O)NC1=O` (centres unmarked) [2,5-diketo-3,6-di(4-succinylaminobutyl)piperazine]: the solubility entry reads like this: (acidic aqueous solutions) “quite insoluble”; (weakly alkaline aqueous solution) “readily soluble”.
